Results as given in US11446287B2, “Compounds and methods for EP300 or CBP modulation and indications therefor” (Opna Immuno-Oncology SA, priority 2019, dated 2022).

Each compound was assayed against T1, Recombinant human EP300 containing the bromodomain (EP300-BD (1040-1161)) (Homo sapiens, UniProt Q09472) (assay: EP300 Alphascreen binding assay).
T1 construct: Recombinant human EP300 bromodomain (EP300-BD (1040-1161)); made in house; host or cells: E. coli BL21-CodonPlus (DE3), modified pET vector
T1 sequence (Q09472 1040-1161): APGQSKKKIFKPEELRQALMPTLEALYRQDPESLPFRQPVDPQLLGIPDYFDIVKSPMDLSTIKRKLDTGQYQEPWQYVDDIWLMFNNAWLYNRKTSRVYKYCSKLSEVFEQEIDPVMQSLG
Procedure, shortened: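 Displacement of a biotinylated acetyl-K56 histone H3 peptide from the N-His bromodomain construct (1040-1161) measured by AlphaScreen proximity, beads at 7.5 μg/ml final, read 60 min after addition. Protein, peptide and compound first incubated 1 h at room temperature, pH 7.5 HEPES buffer; IC50 by four-parameter logistic fit.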

Structure (SMILES) | IC50 [µM]
Cc1noc(C)c1-c1cnc2c(c1)c(-c1cccc(S(=O)(=O)NC3CC3)c1)cn2Cc1ccccc1 [P-0083, 3-(1-benzyl-5-(3,5-dimethylisoxazol-4-yl)-1H-pyrrolo[2,3-b]pyridin-3-yl)-N-cyclopropylbenzenesulfonamide] | 0.0001 to 1
Cc1noc(C)c1-c1cnc2c(c1)c(C#CC(=O)O)cn2Cc1ccccc1 [P-0069, 3-(1-benzyl-5-(3,5-dimethylisoxazol-4-yl)-1H-pyrrolo[2,3-b]pyridin-3-yl)propiolic acid] | 0.0001 to 1
Cc1noc(C)c1-c1cnc2c(CC3CCC3)cn(-c3c(C(=O)O)ccc(Br)c3F)c2c1 [P-0086, 4-bromo-2-(3-(cyclobutylmethyl)-6-(3,5-dimethylisoxazol-4-yl)-1H-pyrrolo[3,2-b]pyridin-1-yl)-3-fluorobenzoic acid] | 0.0001 to 1
CNS(=O)(=O)c1cccc(-c2cn(Cc3ccccc3)c3ncc(-c4c(C)noc4C)cc23)c1 [P-0082, 3-(1-benzyl-5-(3,5-dimethylisoxazol-4-yl)-1H-pyrrolo[2,3-b]pyridin-3-yl)-N-methylbenzenesulfonamide] | 1 to 8
COC(=O)c1ccc(-c2cn(S(=O)(=O)c3ccc(C)cc3)c3ncc(-c4c(C)noc4C)cc23)cc1 [P-0005, methyl 4-(5-(3,5-dimethylisoxazol-4-yl)-1-tosyl-1H-pyrrolo[2,3-b]pyridin-3-yl)benzoate] | 8 to 1000
Cc1noc(C)c1-c1cnc2c(c1)c(-c1cccc(C(=O)O)c1)cn2Cc1cccc(OC(F)(F)F)c1 [P-0059, 3-(5-(3,5-dimethylisoxazol-4-yl)-1-(3-(trifluoromethoxy)benzyl)-1H-pyrrolo[2,3-b]pyridin-3-yl)benzoic acid] | 0.0001 to 1
Cc1noc(C)c1-c1cnc2c(Cc3ccccc3Cl)cn(-c3ccnc(C(=O)O)c3)c2c1 [P-0091, 4-(3-(2-chlorobenzyl)-6-(3,5-dimethylisoxazol-4-yl)-1H-pyrrolo[3,2-b]pyridin-1-yl)picolinic acid] | 0.0001 to 1
Cc1noc(C)c1-c1cnc2c(c1)c(-c1ccnc(C(=O)O)c1)cn2S(=O)(=O)c1ccccc1 [P-0055, 4-(5-(3,5-dimethylisoxazol-4-yl)-1-(phenylsulfonyl)-1H-pyrrolo[2,3-b]pyridin-3-yl)picolinic acid] | 0.0001 to 1
Cc1noc(C)c1-c1cnc2c(CC3CCC3)cn(-c3c(Cl)cc(C(=O)O)cc3Cl)c2c1 [P-0074, 3,5-dichloro-4-(3-(cyclobutylmethyl)-6-(3,5-dimethylisoxazol-4-yl)-1H-pyrrolo[3,2-b]pyridin-1-yl)benzoic acid] | 0.0001 to 1
Cc1noc(C)c1-c1cnc2c(c1)c(-c1ccccc1)cn2C(c1ccccn1)C1CCCC1 (centres unmarked) [P-0003, 4-(1-(cyclopentyl(pyridin-2-yl)methyl)-3-phenyl-1H-pyrrolo[2,3-b]pyridin-5-yl)-3,5-dimethylisoxazole] | 8 to 1000
Cc1noc(C)c1-c1cnc2c(c1)c(-c1cccc(C(=O)O)c1)cn2Cc1cccc(F)c1 [P-0060, 3-(5-(3,5-dimethylisoxazol-4-yl)-1-(3-fluorobenzyl)-1H-pyrrolo[2,3-b]pyridin-3-yl)benzoic acid] | 0.0001 to 1
Cc1noc(C)c1-c1cnc2c(c1)c(-c1ccc(C(=O)O)cc1)cn2C(c1ccccn1)C1CCCC1 (centres unmarked) [P-0002, 4-(1-(cyclopentyl(pyridin-2-yl)methyl)-5-(3,5-dimethylisoxazol-4-yl)-1H-pyrrolo[2,3-b]pyridin-3-yl)benzoic acid] | 0.0001 to 1
COc1cccc(Cn2cc(-c3ccnc(C(=O)O)c3)c3cc(-c4c(C)noc4C)cnc32)c1 [P-0057, 4-(5-(3,5-dimethylisoxazol-4-yl)-1-(3-methoxybenzyl)-1H-pyrrolo[2,3-b]pyridin-3-yl)picolinic acid] | 0.0001 to 1
Cc1cc(C(=O)O)cnc1-n1cc(CC2CCC2)c2ncc(-c3c(C)noc3C)cc21 [P-0075, 6-(3-(cyclobutylmethyl)-6-(3,5-dimethylisoxazol-4-yl)-1H-pyrrolo[3,2-b]pyridin-1-yl)-5-methylnicotinic acid] | 0.0001 to 1
